{
  "source": "paper PMC7979765",
  "about": "“trans-Translation inhibitors bind to a novel site on the ribosome and clear Neisseria gonorrhoeae in vivo” (Nature Communications, 2021)",
  "system": "Neisseria gonorrhoeae",
  "assay": "MIC, microbroth dilution, G77L medium",
  "assay_type": "cell-based",
  "settings": "Neisseria gonorrhoeae",
  "note": "Where two headings read alike, the source gives them in different places.",
  "data": [
    {"smiles": "O=C(Nc1nnc(-c2ccc(F)cc2)o1)N1CCc2ccccc2C1", "note": "[MBX-4132]", "values": [
      {"measurement": "MIC", "setting": "read-out: MIC GEOMEAN, strain WHO Z, geomean of replicates", "result": 0.264, "unit": "µg/mL"},
      {"measurement": "MIC", "setting": "read-out: N. gonorrhoeae H041 MIC, strain H041, Fig. 1B", "result": 0.18, "unit": "µg/mL"},
      {"measurement": "MIC90", "setting": "read-out: N. gonorrhoeae MIC90", "result": 0.34, "unit": "µg/mL"},
      {"measurement": "MIC", "setting": "strain CDC-0165, CIP, PEN, TET", "result": 0.68, "unit": "µg/mL"},
      {"measurement": "MIC", "setting": "strain CDC-0165, replicates 1-3", "result": 0.677, "unit": "µg/mL"},
      {"measurement": "MIC", "setting": "strain CDC-0166, CIP, PEN, TET", "result": 0.17, "unit": "µg/mL"},
      {"measurement": "MIC", "setting": "strain CDC-0166, replicates 1-3", "result": 0.169, "unit": "µg/mL"},
      {"measurement": "MIC", "setting": "strain CDC-0167", "result": 0.13, "unit": "µg/mL"},
      {"measurement": "MIC", "setting": "strain CDC-0167, replicates 1-3", "result": 0.169, "unit": "µg/mL"},
      {"measurement": "MIC", "setting": "strain CDC-0169, CIP, PEN, TET", "result": 0.17, "unit": "µg/mL"},
      {"measurement": "MIC", "setting": "strain CDC-0169, replicates 1-3", "result": 0.169, "unit": "µg/mL"},
      {"measurement": "MIC", "setting": "strain CDC-0170, CIP, PEN, TET", "result": 0.17, "unit": "µg/mL"},
      {"measurement": "MIC", "setting": "strain CDC-0170, replicates 1-3", "result": 0.169, "unit": "µg/mL"},
      {"measurement": "MIC", "setting": "strain CDC-0171, CIP, PEN, TET", "result": 0.17, "unit": "µg/mL"},
      {"measurement": "MIC", "setting": "strain CDC-0171, replicates 1-3", "result": 0.169, "unit": "µg/mL"},
      {"measurement": "MIC", "setting": "strain CDC-0172, CIP, PEN, TET", "result": 0.17, "unit": "µg/mL"},
      {"measurement": "MIC", "setting": "strain CDC-0172, replicates 1-3", "result": 0.169, "unit": "µg/mL"},
      {"measurement": "MIC", "setting": "strain CDC-0173, CIP, PEN, TET", "result": 0.17, "unit": "µg/mL"},
      {"measurement": "MIC", "setting": "strain CDC-0173, replicates 1-3", "result": 0.169, "unit": "µg/mL"},
      {"measurement": "MIC", "setting": "strain CDC-0174, CIP, PEN, TET", "result": 0.17, "unit": "µg/mL"},
      {"measurement": "MIC", "setting": "strain CDC-0174, replicates 1-3", "result": 0.169, "unit": "µg/mL"},
      {"measurement": "MIC", "setting": "strain CDC-0175, CIP, PEN, TET", "result": 0.08, "unit": "µg/mL"},
      {"measurement": "MIC", "setting": "strain CDC-0175, replicates 1-3", "result": 0.085, "unit": "µg/mL"},
      {"measurement": "MIC", "setting": "strain CDC-0176", "result": 0.34, "unit": "µg/mL"},
      {"measurement": "MIC", "setting": "strain CDC-0176, replicates 1-3", "result": 0.338, "unit": "µg/mL"},
      {"measurement": "MIC", "setting": "strain CDC-0177, CIP, PEN, TET", "result": 0.17, "unit": "µg/mL"},
      {"measurement": "MIC", "setting": "strain CDC-0177, replicates 1-3", "result": 0.169, "unit": "µg/mL"},
      {"measurement": "MIC", "setting": "strain CDC-0178, TET", "result": 0.34, "unit": "µg/mL"},
      {"measurement": "MIC", "setting": "strain CDC-0178, replicates 1-3", "result": 0.338, "unit": "µg/mL"},
      {"measurement": "MIC", "setting": "strain CDC-0179, CIP, PEN, TET", "result": 0.08, "unit": "µg/mL"},
      {"measurement": "MIC", "setting": "strain CDC-0179, replicates 1-3", "result": 0.085, "unit": "µg/mL"},
      {"measurement": "MIC", "setting": "strain CDC-0180", "result": 0.17, "unit": "µg/mL"},
      {"measurement": "MIC", "setting": "strain CDC-0180, replicates 1-3", "result": 0.169, "unit": "µg/mL"},
      {"measurement": "MIC", "setting": "strain CDC-0181, CIP, PEN, TET", "result": 0.17, "unit": "µg/mL"},
      {"measurement": "MIC", "setting": "strain CDC-0181, replicates 1-3", "result": 0.169, "unit": "µg/mL"},
      {"measurement": "MIC", "setting": "strain CDC-0182, TET", "result": 0.17, "unit": "µg/mL"},
      {"measurement": "MIC", "setting": "strain CDC-0182, replicates 1-3", "result": 0.169, "unit": "µg/mL"},
      {"measurement": "MIC", "setting": "strain CDC-0183, CIP, PEN, TET", "result": 0.34, "unit": "µg/mL"},
      {"measurement": "MIC", "setting": "strain CDC-0183, replicates 1-3", "result": 0.338, "unit": "µg/mL"},
      {"measurement": "MIC", "setting": "strain CDC-0184, CIP, PEN, TET", "result": 0.17, "unit": "µg/mL"},
      {"measurement": "MIC", "setting": "strain CDC-0184, replicates 1-3", "result": 0.169, "unit": "µg/mL"},
      {"measurement": "MIC", "setting": "strain CDC-0185, CIP, PEN, TET", "result": 0.27, "unit": "µg/mL"},
      {"measurement": "MIC", "setting": "strain CDC-0185, replicates 1-3", "result": 0.338, "unit": "µg/mL"},
      {"measurement": "MIC", "setting": "strain CDC-0186, CIP, PEN, TET", "result": 0.17, "unit": "µg/mL"},
      {"measurement": "MIC", "setting": "strain CDC-0186, replicates 1-3", "result": 0.169, "unit": "µg/mL"},
      {"measurement": "MIC", "setting": "strain CDC-0187, CIP, PEN, TET", "result": 0.34, "unit": "µg/mL"},
      {"measurement": "MIC", "setting": "strain CDC-0187, replicates 1-3", "result": 0.338, "unit": "µg/mL"},
      {"measurement": "MIC", "setting": "strain CDC-0188, CIP, PEN", "result": 0.17, "unit": "µg/mL"},
      {"measurement": "MIC", "setting": "strain CDC-0188, replicates 1-3", "result": 0.169, "unit": "µg/mL"},
      {"measurement": "MIC", "setting": "strain CDC-0189, CIP, PEN, TET", "result": 0.13, "unit": "µg/mL"},
      {"measurement": "MIC", "setting": "strain CDC-0189, replicates 1-3", "result": 0.169, "unit": "µg/mL"},
      {"measurement": "MIC", "setting": "strain CDC-0190, CIP, PEN, TET", "result": 0.17, "unit": "µg/mL"},
      {"measurement": "MIC", "setting": "strain CDC-0190, replicates 1-3", "result": 0.169, "unit": "µg/mL"},
      {"measurement": "MIC", "setting": "strain HO41, PEN, TET, CFM, CRO, LVX", "result": 0.17, "unit": "µg/mL"},
      {"measurement": "MIC", "setting": "strain HO41, replicates 1-3", "result": 0.169, "unit": "µg/mL"},
      {"measurement": "MIC", "setting": "strain MMX 6744, broth dilution by Micromyx", "result": 0.27, "unit": "µg/mL"}
    ]}
  ]
}
